Data reported in article PMC10895799, “Differential contribution of THIK-1 K^+ channels and P2X7 receptors to ATP-mediated neuroinflammation by human microglia” (Journal of Neuroinflammation, 2024).

Legend:
Type in all cases: cell-based
[1] = molecular target: T1, THIK-1 (hKCNK13) (Homo sapiens, UniProt Q9HB14); test: reference blocker in FLIPR thallium flux and QPatch assays of hTHIK-1 HEK cells
T1 construct: gene KCNK13
T1 sequence (Q9HB14 1-408): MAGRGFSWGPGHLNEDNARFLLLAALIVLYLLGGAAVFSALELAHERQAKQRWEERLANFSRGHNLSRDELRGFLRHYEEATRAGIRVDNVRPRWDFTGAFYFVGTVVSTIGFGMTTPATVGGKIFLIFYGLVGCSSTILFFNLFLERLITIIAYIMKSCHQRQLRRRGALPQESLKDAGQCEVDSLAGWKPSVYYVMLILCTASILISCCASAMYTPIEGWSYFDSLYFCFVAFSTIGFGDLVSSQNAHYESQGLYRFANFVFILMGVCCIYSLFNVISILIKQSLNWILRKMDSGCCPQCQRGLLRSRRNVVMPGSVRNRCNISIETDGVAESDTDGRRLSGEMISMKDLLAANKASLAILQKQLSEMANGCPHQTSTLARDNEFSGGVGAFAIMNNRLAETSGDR

[2] = molecular target: T2, THIK-1 (mKCNK13) (Mus musculus, UniProt Q8R1P5); test: FLIPR thallium flux in HEK293 cells; patch clamp of WT and THIK-1 KO microglia
T2 construct: gene Kcnk13
T2 sequence (Q8R1P5 1-405): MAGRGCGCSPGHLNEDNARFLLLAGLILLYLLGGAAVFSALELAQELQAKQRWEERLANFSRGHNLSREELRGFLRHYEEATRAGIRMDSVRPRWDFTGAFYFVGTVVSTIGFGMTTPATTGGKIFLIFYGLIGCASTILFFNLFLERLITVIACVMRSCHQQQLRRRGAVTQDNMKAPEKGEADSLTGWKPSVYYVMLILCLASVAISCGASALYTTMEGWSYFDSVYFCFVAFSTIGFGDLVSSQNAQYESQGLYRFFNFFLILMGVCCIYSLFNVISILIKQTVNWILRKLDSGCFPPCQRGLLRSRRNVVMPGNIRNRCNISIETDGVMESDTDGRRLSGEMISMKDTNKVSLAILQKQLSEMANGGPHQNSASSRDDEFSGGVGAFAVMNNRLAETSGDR

[3] = molecular target: T1, THIK-1 (hKCNK13); test: radioligand displacement on HEK-hKCNK13 membranes; IC50 from FLIPR thallium flux in HEK293; QPatch IC50 […]

Row | Compound | reference blocker in FLIPR thallium flux and QPatch assays of hTHIK-1 HEK cells [1] | IC50 [2] | IC50 [3]
1 | CCCCC[N+](CCCCC)(CCCCC)CCCCC [tetrapentylammonium] | normalised to controls using the nonselective THIK-1 antagonist tetrapentylammonium (TPA) | – | –
2 | COc1ncc(Cl)cc1C(=O)N(C)Cc1cccc(F)c1 [C100814] | – | 61 nM | 71 nM
